The source of these data is patent US20080207731A1, “3-(3-INDOLYL) PROPIONIC ACID CALCIUM SALT AND METHOD OF MAKING 3-(3-INDOLYL) PROPIONIC ACID FREE ACID THEREFROM” (Intellect Neurosciences, Inc., priority 2006, published 2008).

Where a name gives a salt, the structure may show the parent alone.

Data set [1] can be described thus: solubility in water of 3-IPA salts. It counts as physicochemical.
The next data set concerns cultured neurons. To be noted: background statement; cited from earlier work.

Turning to `O=C(O)CCc1c[nH]c2ccccc12` [3-IPA calcium, calcium salt of 3-(3-indolyl)propionic acid], in data set [1] (compared to the calcium salts of other acids present in the reaction mixture (e.g., acrylic acid or acetic acid)), the solubility in water result is “much less soluble in water”. Further, in data set [1] (compared to the free acid form of 3-IPA), the solubility entry is given as “low solubility”.

For `O=C(O)CCc1c[nH]c2ccccc12` [3-IPA, 3-(3-indolyl)propionic acid], the “protection from toxicity of the Aβ peptide” value in the data set with cultured neurons is given as “protect cultured neurons from the toxicity of the Aβ peptide”.
